Consider 10 compounds from US11492335B2, “Aryl or heteroaryl triazolone derivatives or salts thereof, or pharmaceutical compositions comprising the same” (YUHAN CORPORATION, priority 2018, dated 2022).

Where a name gives a salt, the structure may show the parent alone.

Format in all cases: biochemical
One experiment deals with T1, recombinant human VAP-1 (Homo sapiens, UniProt Q16853).
T1 construct: purchased R&D systems
T1 sequence (Q16853 1-763): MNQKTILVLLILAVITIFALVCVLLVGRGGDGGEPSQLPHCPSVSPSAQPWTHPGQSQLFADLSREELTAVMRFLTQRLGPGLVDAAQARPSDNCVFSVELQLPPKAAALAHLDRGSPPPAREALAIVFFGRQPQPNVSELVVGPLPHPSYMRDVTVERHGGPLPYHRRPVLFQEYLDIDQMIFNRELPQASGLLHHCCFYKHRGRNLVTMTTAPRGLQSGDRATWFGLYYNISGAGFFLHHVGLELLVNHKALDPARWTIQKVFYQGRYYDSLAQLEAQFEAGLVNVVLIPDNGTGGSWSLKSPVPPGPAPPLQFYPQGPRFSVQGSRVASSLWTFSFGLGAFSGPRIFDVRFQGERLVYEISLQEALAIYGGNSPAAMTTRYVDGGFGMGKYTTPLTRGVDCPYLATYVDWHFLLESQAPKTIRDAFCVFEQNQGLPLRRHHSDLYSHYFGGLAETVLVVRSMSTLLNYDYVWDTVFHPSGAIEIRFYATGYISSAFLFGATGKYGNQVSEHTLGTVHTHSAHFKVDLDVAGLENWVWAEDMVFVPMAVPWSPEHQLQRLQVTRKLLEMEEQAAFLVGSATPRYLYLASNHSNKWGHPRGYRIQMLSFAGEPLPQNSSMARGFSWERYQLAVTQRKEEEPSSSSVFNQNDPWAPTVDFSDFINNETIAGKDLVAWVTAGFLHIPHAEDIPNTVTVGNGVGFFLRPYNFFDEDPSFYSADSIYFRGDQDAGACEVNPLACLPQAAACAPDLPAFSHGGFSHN
As to the kind of experiment: Activity on recombinant human VAP-1, Amplex Red HRP-coupled hydrogen peroxide assay, benzylamine substrate. The note with it: recombinant human VAP-1, benzylamine substrate; read-out: Inhibitory Activity (IC50, nM) human VAP-1. The gist of the method: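 Enzyme in 50 mM sodium phosphate (pH 7.4) is exposed to test compound for 30 min at 37 °C. Benzylamine (1 mM) with HRP and Amplex Red then starts the reaction, and the fluorescence rate, relative to a DMSO-only control, gives IC50.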

Experiment [1] addresses T2, recombinant human MAO-A (monoamine oxidase-A) (Homo sapiens, UniProt P21397).
T2 construct: purchased Sigma-Aldrich
T2 sequence (P21397 1-527): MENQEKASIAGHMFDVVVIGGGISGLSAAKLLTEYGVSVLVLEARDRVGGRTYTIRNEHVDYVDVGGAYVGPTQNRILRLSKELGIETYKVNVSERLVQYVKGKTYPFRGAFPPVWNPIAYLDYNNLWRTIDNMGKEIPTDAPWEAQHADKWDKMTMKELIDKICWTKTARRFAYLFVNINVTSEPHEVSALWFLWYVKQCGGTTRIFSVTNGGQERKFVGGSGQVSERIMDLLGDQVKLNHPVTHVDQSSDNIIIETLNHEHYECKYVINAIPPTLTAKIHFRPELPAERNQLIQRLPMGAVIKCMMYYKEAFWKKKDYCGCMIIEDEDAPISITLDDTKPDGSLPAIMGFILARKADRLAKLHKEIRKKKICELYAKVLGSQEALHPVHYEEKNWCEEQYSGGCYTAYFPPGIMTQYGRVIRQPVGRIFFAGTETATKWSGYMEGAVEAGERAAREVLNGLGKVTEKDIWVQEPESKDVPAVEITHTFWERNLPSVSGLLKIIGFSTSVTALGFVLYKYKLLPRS
As to the kind of experiment: Activity on recombinant human MAO-A, Amplex Red method, 0.5 mM tyramine substrate. The note with it: 0.5 mM tyramine substrate, read-out: Inhibitory Activity (IC50, nM) MAO-A. A digest of the protocol:
(§1)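 Enzyme in pH 7.4 phosphate buffer; 30 min, 37° C with compound (DMSO <1%); start with 200 uM Amplex Red + 1 U/mL HRP + tyramine 0.5 mM (MAO-A) or benzylamine 1 mM (MAO-B); kinetic read ex 544/em 590, 1-2 h; % rate decrease vs DMSO control → IC50, 4-parameter fit.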

Experiment [2] addresses T3, recombinant human MAO-B (monoamine oxidase-B) (Homo sapiens, UniProt P27338).
T3 construct: purchased Sigma-Aldrich
T3 sequence (P27338 1-520): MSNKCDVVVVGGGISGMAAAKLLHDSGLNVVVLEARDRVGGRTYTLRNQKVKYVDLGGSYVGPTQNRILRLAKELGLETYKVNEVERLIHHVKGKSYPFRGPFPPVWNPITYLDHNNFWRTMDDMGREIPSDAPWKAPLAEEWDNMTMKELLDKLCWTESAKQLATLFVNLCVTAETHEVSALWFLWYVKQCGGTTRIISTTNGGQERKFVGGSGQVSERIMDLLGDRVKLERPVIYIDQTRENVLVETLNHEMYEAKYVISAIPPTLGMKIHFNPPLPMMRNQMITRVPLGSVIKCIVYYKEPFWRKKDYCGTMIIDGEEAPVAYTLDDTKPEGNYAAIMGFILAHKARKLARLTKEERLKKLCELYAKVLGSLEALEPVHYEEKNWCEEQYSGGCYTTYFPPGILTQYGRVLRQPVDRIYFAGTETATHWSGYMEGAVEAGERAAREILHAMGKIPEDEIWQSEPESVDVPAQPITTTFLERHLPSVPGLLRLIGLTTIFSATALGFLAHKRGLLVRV
As to the kind of experiment: Activity on recombinant human MAO-B, Amplex Red method, 1 mM benzylamine substrate. Conditions: 1 mM benzylamine substrate, read-out: Inhibitory Activity (IC50, nM) MAO-B. A digest of the protocol: as §1

Experiment [3] deals with T4, recombinant human DAO (diamine oxidase) (Homo sapiens, UniProt P19801).
T4 construct: purchased R&D systems
T4 sequence (P19801 20-751): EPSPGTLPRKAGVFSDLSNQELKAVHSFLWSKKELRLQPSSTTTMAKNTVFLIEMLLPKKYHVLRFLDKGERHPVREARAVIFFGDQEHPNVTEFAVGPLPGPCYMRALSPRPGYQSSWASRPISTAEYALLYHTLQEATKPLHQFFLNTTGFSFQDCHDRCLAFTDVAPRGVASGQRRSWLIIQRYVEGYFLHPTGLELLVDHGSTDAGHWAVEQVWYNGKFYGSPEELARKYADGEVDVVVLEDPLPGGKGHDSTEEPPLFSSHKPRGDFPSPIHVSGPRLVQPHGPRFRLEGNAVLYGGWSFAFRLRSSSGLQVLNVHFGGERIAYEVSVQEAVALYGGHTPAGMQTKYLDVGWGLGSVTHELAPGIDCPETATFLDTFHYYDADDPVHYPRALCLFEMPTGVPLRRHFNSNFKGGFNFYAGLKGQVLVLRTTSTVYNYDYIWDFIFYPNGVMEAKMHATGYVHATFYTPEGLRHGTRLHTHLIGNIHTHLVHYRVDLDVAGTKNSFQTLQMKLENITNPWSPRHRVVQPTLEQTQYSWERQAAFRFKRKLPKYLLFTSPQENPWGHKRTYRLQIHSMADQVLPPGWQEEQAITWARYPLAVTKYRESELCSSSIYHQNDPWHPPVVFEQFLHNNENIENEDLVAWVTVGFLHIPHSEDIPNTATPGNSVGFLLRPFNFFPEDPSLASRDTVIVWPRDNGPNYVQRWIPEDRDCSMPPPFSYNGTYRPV
As to the kind of experiment: Activity on recombinant human DAO, Amplex Red method, 1 mM putrescine substrate. Conditions: recombinant human DAO, 1 mM putrescine substrate; read-out: Inhibitory Activity (IC50, nM) DAO. The gist of the method:
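Inhibition of recombinant human DAO (diamine oxidase, R&D systems) was assessed with the Amplex Red Hydrogen Peroxide Assay Kit. Hydrogen peroxide produced from 1 mM putrescine was detected through an HRP-coupled reaction that converts Amplex Red into fluorescent resorufin, read at 544 nm excitation and 590 nm emission. IC50 values came from four-parameter logistic fits in GraphPad Prism.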

In the case of `NC/C(=C\F)Cn1ncn(-c2ccnc(-c3ccc4c(c3)OCO4)c2)c1=O` [Example 209, 2-[(2E)-2-(aminomethyl)-3-fluoroprop-2-en-1-yl]-4-[2-(1,3-benzodioxol-5-yl)pyridin-4-yl]-2,4-dihydro-3H-1,2,4-triazol-3-one hydrochloride], the IC50 is 0.63 nM on recombinant human VAP-1, above 100000 nM in experiment [1], 17 nM in experiment [2] and below 10 nM in experiment [3].

As for `Cc1ccc(-c2cccc(-c3noc(C4CC4)n3)c2)nc1-n1cnn(C/C(=C/F)CN)c1=O` [Example 210, 2-[(2E)-2-(aminomethyl)-3-fluoroprop-2-en-1-yl]-4-{6-[3-(5-cyclopropyl-1,2,4-oxadiazol-3-yl)phenyl]-3-methylpyridin-2-yl}-2,4-dihydro-3H-1,2,4-triazol-3-one hydrochloride], the 50% inhibitory concentration (IC50) on recombinant human VAP-1 is 52 nM; in experiment [1], above 100000 nM; in experiment [2], above 10000 nM; in experiment [3] it was 4400 nM.

`Cc1ccc(-c2ccc(C(=O)N3CCOCC3)cc2)nc1-n1cnn(C/C(=C/F)CN)c1=O` [Example 211, 2-[(2E)-2-(aminomethyl)-3-fluoroprop-2-en-1-yl]-4-{3-methyl-6-[4-(morpholin-4-ylcarbonyl)phenyl]pyridin-2-yl}-2,4-dihydro-3H-1,2,4-triazol-3-one hydrochloride]: the IC50 at recombinant human VAP-1 was 49 nM; in experiment [1], above 100000 nM; in experiment [2], above 10000 nM; in experiment [3] it was 3500 nM.

Take `COc1ccc(-c2ccc(C)c(-n3cnn(C/C(=C/F)CN)c3=O)n2)cn1` [Example 212, 2-[(2E)-2-(aminomethyl)-3-fluoroprop-2-en-1-yl]-4-(6′-methoxy-5-methyl-2,3′-bipyridin-6-yl)-2,4-dihydro-3H-1,2,4-triazol-3-one hydrochloride]: the IC50 at recombinant human VAP-1 is 45 nM; in experiment [1] it was above 100000 nM; in experiment [2], above 10000 nM; in experiment [3] it was 2200 nM.

As for `Cc1ccc(-c2ccc3c(c2)OCO3)nc1-n1cnn(C/C(=C/F)CN)c1=O` [Example 213, 2-[(2E)-2-(aminomethyl)-3-fluoroprop-2-en-1-yl]-4-[6-(1,3-benzodioxol-5-yl)-3-methylpyridin-2-yl]-2,4-dihydro-3H-1,2,4-triazol-3-one hydrochloride], the IC50 on recombinant human VAP-1 is 29 nM; in experiment [1], above 100000 nM; in experiment [2], above 10000 nM; in experiment [3] it was 1800 nM.

In the case of `Cc1ccc(-c2ccc3cn[nH]c3c2)nc1-n1cnn(C/C(=C/F)CN)c1=O` [Example 214, 2-[(2E)-2-(aminomethyl)-3-fluoroprop-2-en-1-yl]-4-[6-(1H-indazol-6-yl)-3-methylpyridin-2-yl]-2,4-dihydro-3H-1,2,4-triazol-3-one hydrochloride], the half-inhibitory concentration (IC50) at recombinant human VAP-1 is 23 nM; in experiment [1], above 100000 nM; in experiment [2], above 100000 nM; in experiment [3], 1400 nM.

In the case of `Cc1ccc(-c2cc(C)c3c(c2)CCC(=O)N3)nc1-n1cnn(C/C(=C/F)CN)c1=O` [Example 215, 6-(6-{1-[(2E)-2-(aminomethyl)-3-fluoroprop-2-en-1-yl]-5-oxo-1,5-dihydro-4H-1,2,4-triazol-4-yl}-5-methylpyridin-2-yl)-8-methyl-3,4-dihydroquinolin-2(1H)-one hydrochloride], the IC50 worked out at 14 nM at recombinant human VAP-1, 96000 nM in experiment [1], 3500 nM in experiment [2] and 290 nM in experiment [3].

Take `Cc1ccc(-c2ccc3c(c2)NC(=O)CO3)nc1-n1cnn(C/C(=C/F)CN)c1=O` [Example 216, 6-(6-{1-[(2E)-2-(aminomethyl)-3-fluoroprop-2-en-1-yl]-5-oxo-1,5-dihydro-4H-1,2,4-triazol-4-yl}-5-methylpyridin-2-yl)-2H-1,4-benzoxazin-3 (4H)-one hydrochloride]: the IC50 was 88 nM at recombinant human VAP-1, above 100000 nM in experiment [1], above 10000 nM in experiment [2] and 4200 nM in experiment [3].

Take `CS(=O)(=O)c1ccc(-c2cnc(-n3cnn(C/C(=C/F)CN)c3=O)cn2)cc1` [Example 217, 2-[(2E)-2-(aminomethyl)-3-fluoroprop-2-en-1-yl]-4-{5-[4-(methylsulfonyl)phenyl]pyrazin-2-yl}-2,4-dihydro-3H-1,2,4-triazol-3-one]: the IC50 on recombinant human VAP-1 is 2.2 nM; in experiment [1], above 100000 nM; in experiment [2] it was 110 nM; in experiment [3], below 100 nM.

For the compound `NC/C(=C\F)Cn1ncn(-c2cnc(-c3ccc(-c4nc[nH]n4)cc3)cn2)c1=O` [Example 218, 2-[(2E)-2-(aminomethyl)-3-fluoroprop-2-en-1-yl]-4-{5-[4-(1H-1,2,4-triazol-3-yl)phenyl]pyrazin-2-yl}-2,4-dihydro-3H-1,2,4-triazol-3-one], the IC50 is 1.9 nM on recombinant human VAP-1, above 100000 nM in experiment [1], 49 nM in experiment [2] and below 100 nM in experiment [3].
